Values after ≈ are worked out from the molar mass of the structure shown.

This passage reports IC50 results from ChEMBL document CHEMBL1124428, “In vitro metabolic transformations of vinblastine: oxidations catalyzed by peroxidase” (J Med Chem, 1989).

The nature of this experiment: Inhibitory concentration against human T-cell leukemic cell line ([…]) in vitro. It counts as functional.
As to `CCC(=O)C[C@@H]1CN(C=O)CCc2c([nH]c3ccccc23)[C@@](C(=O)OC)(c2cc3c(cc2OC)N(C)[C@H]2[C@](O)(C(=O)OC)[C@H](OC(C)=O)[C@]4(CC)C=CCN5CC[C@]32[C@@H]54)C1` [CATHARININE], the half-inhibitory concentration (IC50) was 7.7 µg/mL (≈ 9.33 µM).
Compound `CC[C@]1(O)C[C@@H]2CN(CCc3c([nH]c4ccccc34)[C@@](C(=O)OC)(c3cc4c(cc3OC)N(C)[C@H]3[C@@](O)(C(=O)OC)[C@H](OC(C)=O)[C@]5(CC)C=CCN6CC[C@]43[C@@H]65)C2)C1` [VINBLASTINE] yielded a 50% inhibitory concentration (IC50) of 0.1 µg/mL (≈ 0.123 µM).
With `CC[C@]1(O)C[C@H]2CN(CCc3c([nH]c4ccccc34)[C@@](C(=O)OC)(c3cc4c(cc3OC)N(C=O)[C@H]3[C@@](O)(C(=O)OC)[C@H](OC(C)=O)[C@]5(CC)C=CCN6CC[C@]43[C@@H]65)C2)C1` [VINCRISTINE] the figure was 0.025 µg/mL (≈ 0.0303 µM); with `CC[C@]12CN3CCc4c([nH]c5ccccc45)[C@@](C(=O)OC)(c4cc5c(cc4OC)N(C)[C@H]4[C@@](O)(C(=O)OC)[C@H](OC(C)=O)[C@]6(CC)C=CCN7CC[C@]54[C@@H]76)C[C@@H](C3)[C@H]1O2.CC[C@]12CN3CCc4c([nH]c5ccccc45)[C@@](C(=O)OC)(c4cc5c(cc4OC)N(C)[C@H]4[C@@](O)(C(=O)OC)[C@H](OC(C)=O)[C@]6(CC)C=CCN7CC[C@]54[C@@H]76)C[C@@H](C3)[C@H]1O2.O=S(=O)(O)O` [VINLEUROSINE SULFATE], 0.4 µg/mL.

Broadly, the IC50 is the midpoint of a concentration-inhibition curve.
